Data reported in patent publication EP4678629A1, “IONIZABLE LIPID MOLECULE, PREPARATION METHOD THEREFOR AND USE THEREOF” (Maxirna (Shanghai) Pharmaceutical Co., Ltd., priority 2023, dated 2024).

Columns and labels:
DC2.4 cells = assay: In vitro transfection of cells with eGFP-mRNA lipid nanoparticle (LNP preparation), fluorescence imaging and flow cytometry; assay type: cell-based, mouse; conditions: eGFP positivity rate, DC2.4 cells, 200 ng of mRNA per well, after 24 hours
Source text: (§1) This example used mouse bone marrow-derived dendritic cells DC2.4 (purchased from Millipore) as the validation cell line for a lipid nanoparticle transfection experiment. DC2.4 cells adhered to the wall for growth. All operational steps of cell culture strictly followed the prescribed procedures, using sterile reagents for aseptic operations under a sterile workbench. The main operational steps involved were as follows: • 1) Cell recovery: the preserved cell cryopreservation solution was removed from the -80 °C freezer and immediately placed in a 37 °C water bath for rapid and continuous shaking, allowing it to completely melt within one minute. Fresh culture medium was added to a 15 mL centrifuge tube in advance, and the cell fluid was added to the centrifuge tube in a biosafety cabinet. A centrifuge tube of the same mass was taken, placed symmetrically in the centrifuge, and centrifuged at low speed for 5 minutes at 1200 rpm. After centrifugation, the upper clear liquid was removed, and an appropriate amount of culture medium was slowly added along the tube wall. After the cells were gently blown and dispersed evenly, the cell suspension was drawn and added to the prepared culture bottle. The state and distribution of cells in the early stage of recovery were observed under a microscope. The culture bottle was incubated in a 5% CO2 incubator at 37 °C, and the recovery time was recorded. • 2) Cell passaging: Under a microscope, if the cell density in the field of view reached 80%-90%, cells could be passaged and cultured. Adherent cells required trypsin digestion. In order to avoid residual serum in the culture medium reducing trypsin activity, the original culture medium was removed, and DPBS solution was added to wash once. After suctioning out the DPBS solution, trypsin was added to degrade the protein at the intercellular junction, thereby separating the cells and facilitating further cultivation. The mixture was gently shaken well and placed into the incubator for digestion for 2-3 minutes. After digestion was complete, an appropriate amount of culture medium was immediately added to the original culture dish to terminate digestion. Finally, a pipette was used to carefully blow off the cells and blow them until they were evenly dispersed, and then the cells were inoculated and subcultured in a certain proportion according to experimental requirements.
(§2) Transfection of DC2.4 cells • 1) DC2.4 cell recovery: the frozen DC2.4 cells were taken out from the -80 °C refrigerator and immediately put into a 37 °C water bath for rapid thawing. After melting, they were added to the preheated culture medium, and centrifuged at 1200 rpm for 5 minutes. The supernatant was discarded, and an appropriate amount of DMEM medium containing 10% FBS was added to resuspend the recovered DC2.4 cells, which were placed in a 37 °C, 5% CO2 incubator for activation culture. • 2) According to experimental requirements, DC2.4 cells were transfected into 24 well plates one day in advance. By counting cells, the number and viability of cells were recorded, and a cell suspension with 2 × 10^5 cells per well were taken. Then, a certain volume of DMEM medium containing 10% FBS was added and mixed evenly, wherein 1 mL was added per well for subsequent transfection experiments. • 3) After 24 hours, the culture medium was gently aspirated with a pipette 30 minutes in advance, and each well was washed with 1 mL of DPBS and aspirated. […] The mixture was placed in a 37 °C, 5% CO2 incubator for activation cultivation. • 6) After 24 hours, cell viability (%), eGFP positivity rate (%), and mean fluorescence intensity data were obtained through cell fluorescence imaging and flow cytometry.

[1] = as above; assay type: cell-based, mouse; conditions: mouse, dc2.4 cells, 200 ng of mRNA per well, after 24 hours; read-out: Cell viability, %
Source text: as §1, §2

[2] = Encapsulation efficiency of the lipid nanoparticle (eGFP mRNA) by Ribogreen method; assay type: physicochemical; conditions: LNP encapsulating eGFP mRNA, ionizable lipid/DOPE/cholesterol/DMG-PEG2000 50/10/48.25/1.25 mol%, N/P 12
Method: (§3) The ionizable lipid compound and positive control 1 from Example I were dissolved in ethanol at a molar ratio of 50:10:48.25:1.25 with DOPE, cholesterol, and DMG-PEG2000 (all purchased from A.V.T (Shanghai) Pharmaceutical Co., Ltd.) to prepare an ethanol lipid solution. The enhanced green fluorescent protein (eGFP) mRNA was diluted in 20 mM citrate buffer (pH=6.1) to obtain an mRNA aqueous solution. By using a microfluidic device (Micro&Nano Biologics Co., Ltd., model: INano ™ L) mix ethanol lipid solution and mRNA aqueous solution in a volume ratio of 1:3 to prepare a lipid nanoparticle with a total lipid to mRNA N/P ratio of 12. The medium was replaced by ultrafiltration, ethanol was removed and volumed with DPBS. Finally, the lipid nanoparticle was filtered through a 0.2 µm sterile filter to obtain an LNP preparation encapsulating eGFP mRNA using ionizable lipid/DOPE/cholesterol/DMG-PEG2000 (50/10/48.25/1.25 mol%), with an mRNA content of 0.002 mg/ml-0.5 mg/mL.
(§4) Using Malvern Zetasizer Nano ZS (Malvern UK), the size and polydispersity index (PDI) of the lipid nanoparticle were determined by dynamic light scattering in 173° backscatter detection mode, and the encapsulation efficiency was measured by Ribogreen method.

[3] = Size and polydispersity index (PDI) of the lipid nanoparticle by dynamic light scattering; assay type: physicochemical; conditions: LNP encapsulating eGFP mRNA, ionizable lipid/DOPE/cholesterol/DMG-PEG2000 50/10/48.25/1.25 mol%, N/P 12; for Particle size: in nm (unit assumed)
Method: as §3, §4

| SMILES | Positive rate, % (DC2.4 cells) [%] | viability at 24 h [1] [%] | Encapsulation rate, % [2] [%] | PDI [3] | Particle size [3] |
| --- | --- | --- | --- | --- | --- |
| CCCCCC/C=C\COC(=O)CCCCCCCN(CCO)CCCN(CCCCCCCC(=O)OC/C=C\CCCCCC)CCCCCCCC(=O)OC/C=C\CCCCCC [Example 6, Di((Z)-non-2-en-1-yl)8,8'-((3-((2-hydroxyethyl)(8-(((Z)-non-2-en-1-yl)oxo)-8-oxooctyl)amino)propyl)azanediyl)dioctanoate] | 85.29 | 80.5 | 92.30 | 0.13 |  |
| CC/C=C\C/C=C\CCCOC(=O)CCCCCCCN(CCO)CCCN(CCCCCCCC(=O)OCCC/C=C\C/C=C\CC)CCCCCCCC(=O)OCCC/C=C\C/C=C\CC [Example 7, Di((4Z,7Z)-dec-4,7-dien-1-yl)8,8'-((3-((8-(((4Z,7Z)-dec-4,7-dien-1-yl)oxo)-8-oxooctyl)(2-hydroxyethyl)amino)propyl)azanediyl)dioctanoate] | 75.68 | 76.9 | 86.64 | 0.09 |  |
| CC/C=C\CCCCCOC(=O)CCCCCCCN(CCO)CCCN(CCCCCCCC(=O)OCCCCC/C=C\CC)CCCCCCCC(=O)OCCCCC/C=C\CC [Example 8, Di((Z)-non-6-en-1-yl)8,8'-((3-((2-hydroxyethyl)(8-(((Z)-non-6-en-1-yl)oxo)-8-oxooctyl)amino)propyl)azanediyl)dioctanoate] | 82.12 | 63.2 | 80.59 | 0.21 |  |
| CCCCCCCCCOC(=O)CCCCCCCN(CCO)CCCN(CCCCCCCC(=O)OCCCCCCCCC)CCCCCCCC(=O)OCCCCCCCCC [Example 9, Dinonyl 8,8'-((3-((2-hydroxyethyl)(8-(nonoxy)-8-oxooctyl)amino)propyl)azanediyl)dioctanoate] | 83.84 | 55.6 | 78.69 | 0.22 |  |
| CC/C=C\COC(=O)CCCCCCCN(CCO)CCCN(CCCCCCCC(=O)OC/C=C\CC)CCCCCCCC(=O)OC/C=C\CC [Example 10, Di((Z)-pent-2-en-1-yl)8,8'-((3-((2-hydroxyethyl)(8-oxo-8-(((Z)-pent-2-en-1-yl)oxo)octyl)amino)propyl)azanediyl)dioctanoate] | 95.39 | 95 | 89.02 | 0.14 | 90.73 |
| CCCCCCCCCCCCCOC(=O)CCCCCCCN(CCO)CCCN(CCCCCCCC(=O)OCCCCCCCCCCCCC)CCCCCCCC(=O)OCCCCCCCCCCCCC [Example 13, Ditridecyl 8,8'-((3-((2-hydroxyethyl)(8-oxo-8-(tridecyloxy)octyl)amino)propyl)azanediyl)dioctanoate] | 93.23 | 91.3 | 96.34 | 0.21 |  |
| CCCCCCCCCCCOC(=O)CCCCCCCCCN(CCO)CCCN(CCCCCCCCCC(=O)OCCCCCCCCCCC)CCCCCCCCCC(=O)OCCCCCCCCCCC [Example 14, Diundecyl 10,10'-((3-((2-hydroxyethyl)(10-oxo-10-(undecyloxy)decyl)amino)propyl)azanediyl)dicaprate] | 95.61 | 97.9 | 97.23 | 0.21 | 98.45 |
| CCCCCC/C=C\COC(=O)CCCCCCCCCN(CCO)CCCN(CCCCCCCCCC(=O)OC/C=C\CCCCCC)CCCCCCCCCC(=O)OC/C=C\CCCCCC [Example 15, Di((Z)-non-2-en-1-yl)10,10'-((3-((2-hydroxyethyl)(10-(((Z)-non-2-en-1-yl)oxo)-10-oxodecyl)amino)propyl)azanediyl)dicaprate] | 91.39 | 84.4 | 90.28 | 0.20 |  |
| CCCCCC/C=C\COC(=O)CCCN(CCO)CCCN(CCCC(=O)OC/C=C\CCCCCC)CCCC(=O)OC/C=C\CCCCCC [Example 16, Di((Z)-non-2-en-1-yl)4,4'-((3-((2-hydroxyethyl)(4-(((Z)-non-2-en-1-yl)oxo)-4-oxobutyl)amino)propyl)azanediyl)dibutanoate] | 94.18 | 84.6 | 86.73 | 0.18 | 99.65 |
| CCC/C=C\COC(=O)CCCCCCCN(CCO)CCCN(CCCCCCCC(=O)OC/C=C\CCC)CCCCCCCC(=O)OC/C=C\CCC [Example 17, Di((Z)-hexyl-2-en-1-yl)8,8'-((3-((8-(((Z)-hexyl-2-en-1-yl)oxo)-8-oxooctyl)(2-hydroxyethyl)amino)propyl)azanediyl)dioctanoate] | 95.88 | 71.1 | 90.04 | 0.26 |  |
| CCCCCCCCCCCOC(=O)CCCCCCCN(CCCO)CCCN(CCCCCCCC(=O)OCCCCCCCCCCC)CCCCCCCC(=O)OCCCCCCCCCCC [Example 18, Diundecyl 8,8'-((3-((3-hydroxypropyl)(8-oxo-8-(undecyloxy)octyl)amino)propyl)azanediyl)dioctanoate] | 96.79 | 90.6 | 88.82 | 0.25 |  |
| CCCCCC/C=C\COC(=O)CCCCCCCN(CCCO)CCCN(CCCCCCCC(=O)OC/C=C\CCCCCC)CCCCCCCC(=O)OC/C=C\CCCCCC [Example 19, Di((Z)-non-2-en-1-yl)8,8'-((3-((3-hydroxypropyl)(8-(((Z)-non-2-en-1-yl)oxo)-8-oxooctyl)amino)propyl)azanediyl)dioctanoate] | 97.44 | 95.6 | 92.54 | 0.26 |  |
| CCCCCCCCCCCOC(=O)CCCCCCCN(CCCCO)CCCN(CCCCCCCC(=O)OCCCCCCCCCCC)CCCCCCCC(=O)OCCCCCCCCCCC [Example 20, Diundecyl 8,8'-((3-((4-hydroxybutyl)(8-oxo-8-(undecyloxy)octyl)amino)propyl)azanediyl)dioctanoate] | 93.27 | 83.8 | 79.02 | 0.18 | 89.98 |
| CCCCCCCCCCCCCCCOC(=O)CCCCCCCN(CCO)CCCN(CCCCCCCC(=O)OCCCCCCCCCCCCCCC)CCCCCCCC(=O)OCCCCCCCCCCCCCCC [Example 22, Dipentadecyl 8,8'-((3-((2-hydroxyethyl)(8-oxo-8-(pentadecyloxy)octyl)amino)propyl)azanediyl)dioctanoate] | 98.21 | 95.1 | 78.46 | 0.11 |  |
| CCCCCCCCCCCOC(=O)CCCCCCCCCCCN(CCO)CCCN(CCCCCCCCCCCC(=O)OCCCCCCCCCCC)CCCCCCCCCCCC(=O)OCCCCCCCCCCC [Example 23, Diundecyl 12,12'-((3-((2-hydroxyethyl)(12-oxo-12-(undecyloxy)dodecyl)amino)propyl)azanediyl)didodecanoate] | 92.1 | 87.5 | 92.58 | 0.26 |  |
